Assay results published in publication PMC10913730, “Antimicrobial activity of a natural compound and analogs against multi-drug-resistant Gram-positive pathogens” (Microbiology Spectrum, 2024).
In brackets after ≈: the same amount, converted by molar mass. Like-named read-outs stand apart in the source and are kept apart here.

Assays:
[1] = pH and Ka of 10-g/L aqueous solutions (pH meter); format: physicochemical; settings: 10-g/L solution in distilled, deionized water
MRSA isolates = experiment: MIC/MBC, CLSI broth microdilution, MRSA isolates; format: cell-based, Staphylococcus aureus
[2] = test system: Staphylococcus epidermidis isolates; experiment: microbe, parasite or virus in culture; format: cell-based; settings: 21 Staphylococcus epidermidis isolates
Enterococcus faecalis = experiment: MIC/MBC against Enterococcus faecalis; format: cell-based
Streptococcus pyogenes = experiment: MIC/MBC against Streptococcus pyogenes; format: cell-based; settings: for MBC: Streptococcus pyogenes
Pseudomonas aeruginosa = experiment: MIC against Pseudomonas aeruginosa; format: cell-based
[3] = test system: MRSA isolate SAD05 biofilms; format: cell-based, Staphylococcus aureus
[4] = test system: human dermal fibroblast (HDF) cells; experiment: alamarBlue cell viability assay, HDF; settings: HDFs, 24-hour incubation, non-linear regression
[5] = test system: human bronchial epithelial (16HBE) cells; experiment: alamarBlue cell viability assay, 16HBE; settings: 24-hour incubation, non-linear regression
[6] = test system: erythrocytes (sheep blood); experiment: Hemolytic activity against sheep erythrocytes; settings: higher than MIC90
[7] = Staphylococcus aureus, MRSA, pH 5.5, MRSA 0606, pH 5.5
[8] = Staphylococcus aureus, MRSA, pH 5.5, MRSA 0608, pH 5.5
[9] = Staphylococcus aureus, MRSA, pH 5.5, MRSA 0634, pH 5.5
[10] = Staphylococcus aureus, MRSA, pH 5.5, MRSA 0641, pH 5.5
[11] = Staphylococcus aureus, MRSA, pH 5.5, MRSA 0646, pH 5.5
[12] = Staphylococcus aureus, MRSA, pH 5.5, TCH 1516, pH 5.5
[13] = Staphylococcus aureus, MRSA, pH 6.5, MRSA 0606, pH 6.5
[14] = Staphylococcus aureus, MRSA, pH 6.5, MRSA 0608, pH 6.5
[15] = Staphylococcus aureus, MRSA, pH 6.5, MRSA 0634, pH 6.5
[16] = Staphylococcus aureus, MRSA, pH 6.5, MRSA 0641, pH 6.5
[17] = Staphylococcus aureus, MRSA, pH 6.5, MRSA 0646, pH 6.5
[18] = Staphylococcus aureus, MRSA, pH 6.5, TCH 1516, pH 6.5
[19] = ATCC49532, Enterococcus faecalis (ATCC 49532)
[20] = ATCC51575, Enterococcus faecalis (ATCC 51575)
[21] = Streptococcus pyogenes (NR1571)

## Oc1c(Br)cc(Br)cc1-c1cc(Br)cc(Br)c1O [C58, MC21-A]
[1]
  acid dissociation constant (Ka): 1.26 × 10^−12
[1]; room temperature
  pH of solution: 6.80
MRSA isolates; MRSA 0606, pH 7.4
  MBC: 6 µg/mL (≈ 12 µM)
  MIC: 2 µg/mL (≈ 3.99 µM)
MRSA isolates; MRSA 0608, pH 7.4
  MBC: 4 µg/mL (≈ 7.97 µM)
  MIC: 2 µg/mL (≈ 3.99 µM)
MRSA isolates; MRSA 0634, pH 7.4
  MBC: 2 µg/mL (≈ 3.99 µM)
  MIC: 2 µg/mL (≈ 3.99 µM)
MRSA isolates; MRSA 0641, pH 7.4
  MBC: 4 µg/mL (≈ 7.97 µM)
  MIC: 2 µg/mL (≈ 3.99 µM)
MRSA isolates; MRSA 0646, pH 7.4
  MBC: 4 µg/mL (≈ 7.97 µM)
  MIC: 2 µg/mL (≈ 3.99 µM)
MRSA isolates; Staphylococcus aureus, MRSA
  MIC90: 2 µg/mL (≈ 3.99 µM)
MRSA isolates; [7]
  MBC: 0.5 µg/mL (≈ 0.996 µM)
  MIC: 0.5 µg/mL (≈ 0.996 µM)
MRSA isolates; [8]
  MBC: 0.5 µg/mL (≈ 0.996 µM)
  MIC: 0.5 µg/mL (≈ 0.996 µM)
MRSA isolates; [9]
  MBC: 0.5 µg/mL (≈ 0.996 µM)
  MIC: 0.5 µg/mL (≈ 0.996 µM)
MRSA isolates; [10]
  MBC: 0.5 µg/mL (≈ 0.996 µM)
  MIC: 0.5 µg/mL (≈ 0.996 µM)
MRSA isolates; [11]
  MBC: 1 µg/mL (≈ 1.99 µM)
  MIC: 0.5 µg/mL (≈ 0.996 µM)
MRSA isolates; [12]
  MBC: 1 µg/mL (≈ 1.99 µM)
  MIC: 1 µg/mL (≈ 1.99 µM)
MRSA isolates; Staphylococcus aureus, MRSA, pH 5.5, read-out: Average MBC, average of six MRSA isolates, pH 5.5
  MBC: 0.67 µg/mL (≈ 1.34 µM)
MRSA isolates; Staphylococcus aureus, MRSA, pH 5.5, read-out: Average MIC, average of six MRSA isolates, pH 5.5
  MIC: 0.58 µg/mL (≈ 1.16 µM)
MRSA isolates; [13]
  MBC: 2 µg/mL (≈ 3.99 µM)
  MIC: 1 µg/mL (≈ 1.99 µM)
MRSA isolates; [14]
  MBC: 2 µg/mL (≈ 3.99 µM)
  MIC: 2 µg/mL (≈ 3.99 µM)
MRSA isolates; [15]
  MBC: 2 µg/mL (≈ 3.99 µM)
  MIC: 1 µg/mL (≈ 1.99 µM)
MRSA isolates; [16]
  MBC: 2 µg/mL (≈ 3.99 µM)
  MIC: 1 µg/mL (≈ 1.99 µM)
MRSA isolates; [17]
  MBC: 2 µg/mL (≈ 3.99 µM)
  MIC: 1 µg/mL (≈ 1.99 µM)
MRSA isolates; [18]
  MBC: 2 µg/mL (≈ 3.99 µM)
  MIC: 1 µg/mL (≈ 1.99 µM)
MRSA isolates; Staphylococcus aureus, MRSA, pH 6.5, read-out: Average MBC, average of six MRSA isolates, pH 6.5
  MBC: 2 µg/mL (≈ 3.99 µM)
MRSA isolates; Staphylococcus aureus, MRSA, pH 6.5, read-out: Average MIC, average of six MRSA isolates, pH 6.5
  MIC: 1.2 µg/mL (≈ 2.39 µM)
MRSA isolates; Staphylococcus aureus, MRSA, pH 7.4, read-out: Average MBC, average of six MRSA isolates, pH 7.4
  MBC: 4 µg/mL (≈ 7.97 µM)
MRSA isolates; Staphylococcus aureus, MRSA, pH 7.4, read-out: Average MIC, average of six MRSA isolates, pH 7.4
  MIC: 2 µg/mL (≈ 3.99 µM)
MRSA isolates; Staphylococcus aureus, MRSA, read-out: MBC90, 39 evaluated MRSA isolates, CLSI broth microdilution
  MBC: 4 µg/mL (≈ 7.97 µM)
MRSA isolates; TCH 1516, pH 7.4
  MBC: 4 µg/mL (≈ 7.97 µM)
  MIC: 2 µg/mL (≈ 3.99 µM)
MRSA isolates; six MRSA isolates, pH lowered to 5.5
  change of MIC and MBC with the reduction in pH: decreased as much as fourfold
[2]
  MBC range: 4 to 12 µg/mL
  MIC range: 1 to 4 µg/mL
[2]; read-out: MBC90
  MBC: 8 µg/mL (≈ 15.9 µM)
[2]; read-out: MIC90
  MIC90: 2 µg/mL (≈ 3.99 µM)
Enterococcus faecalis; [19]
  MBC: 12 µg/mL (≈ 23.9 µM)
  MIC: 6 µg/mL (≈ 12 µM)
Enterococcus faecalis; [20]
  MBC: 12 µg/mL (≈ 23.9 µM)
  MIC: 6 µg/mL (≈ 12 µM)
Streptococcus pyogenes; [21]
  MIC: 4 µg/mL (≈ 7.97 µM)
  MBC: 16 µg/mL (≈ 31.9 µM)
Streptococcus pyogenes; Streptococcus pyogenes (NR1575), read-out: MIC
  MIC: 4 µg/mL (≈ 7.97 µM)
Streptococcus pyogenes; Streptococcus pyogenes (NR1575)
  MBC: 12 µg/mL (≈ 23.9 µM)
Pseudomonas aeruginosa; Pseudomonas aeruginosa (PAM57-15)
  MIC: > 32 µg/mL
Pseudomonas aeruginosa; Pseudomonas aeruginosa (PAO1)
  MIC: > 32 µg/mL
[3]; 72-hour biofilms of SAD05, MBEC assay
  concentration that completely eradicated biofilms: 8 µg/mL
[3]; SAD05 biofilms, compared with vancomycin
  biofilm biomass, crystal violet assay: lower biomass
[4]
  LD50: 71.3 µg/mL
[5]
  LD50: 59.3 µg/mL
[6]
  concentration where hemolytic activity begins relative to MIC90: 32 fold
